By mass density is commonly meant mass per unit of volume. Broadly, the refractive index is a measure of how strongly the sample bends light.

A short description of data set [1]: xn = mol fraction of the nth substance listed. The following applies: 303.15 K, 101.33 kPa, Liquid.
Data set [2] can be described thus: activity coefficient (dimensionless); of the first substance listed, at infinite dilution; xn = mol fraction of the nth substance listed. The conditions noted are these: Liquid, Differential ebulliometry, x1 = 0.
Data set [3] is described as follows: refractive index (Na D-line) (dimensionless). The conditions noted are these: 293.15 K; 101.33 kPa; Liquid; Standard Abbe refractometry.

Numbers after ± are expanded uncertainties.

Turning to `Nc1ccccc1` [aniline] + NC1CCCCC1, in data set [1] (x2 = 0), the mass density was 1012.94 ± 0.27 kg/m3.
Regarding `NC1CCCCC1` [cyclohexylamine] + CCCCCCC, the mass density amounted to 689.34 ± 0.43 kg/m3 in data set [1] (x1 = 0.1009); 703.99 ± 0.41 kg/m3 in data set [1] (x1 = 0.1999); 719.71 ± 0.39 kg/m3 in data set [1] (x1 = 0.3006); 735.92 ± 0.37 kg/m3 in data set [1] (x1 = 0.3983); 753.83 ± 0.35 kg/m3 in data set [1] (x1 = 0.5); 772.37 ± 0.33 kg/m3 in data set [1] (x1 = 0.5999). In addition, the mass density in data set [1] (x1 = 0.6989) is 791.79 ± 0.31 kg/m3; in data set [1] (x1 = 0.7996) it was 812.68 ± 0.28 kg/m3; in data set [1] (x1 = 0.8993), 834.6 ± 0.26 kg/m3; in data set [1] (x1 = 1), 858.2 ± 0.23 kg/m3.
Consider `NC1CCCCC1` [cyclohexylamine] + CCCCCCCC, for which the activity coefficient in data set [2] (353.15 K) stood at 1.61 ± 0.1; in data set [2] (373.15 K), 1.5 ± 0.09; in data set [2] (393.15 K), 1.42 ± 0.09. In addition, the mass density amounted to 705.94 ± 0.38 kg/m3 in data set [1] (x1 = 0.1036); 717.44 ± 0.37 kg/m3 in data set [1] (x1 = 0.2003); 730.4 ± 0.36 kg/m3 in data set [1] (x1 = 0.3006); 745.58 ± 0.34 kg/m3 in data set [1] (x1 = 0.4085); 759.5 ± 0.33 kg/m3 in data set [1] (x1 = 0.5001); 775.85 ± 0.31 kg/m3 in data set [1] (x1 = 0.5991). Besides, the mass density in data set [1] (x1 = 0.6998) was 793.85 ± 0.29 kg/m3; in data set [1] (x1 = 0.7503), 803.55 ± 0.28 kg/m3; in data set [1] (x1 = 0.8018), 813.83 ± 0.27 kg/m3; in data set [1] (x1 = 0.8502) it was 823.95 ± 0.27 kg/m3; in data set [1] (x1 = 1) it was 858.2 ± 0.23 kg/m3.
Take `NC1CCCCC1` [cyclohexylamine] + CCCCCCCCC: the mass density in data set [1] (x1 = 0.0998) is 718.79 ± 0.37 kg/m3; in data set [1] (x1 = 0.1994), 728.47 ± 0.36 kg/m3; in data set [1] (x1 = 0.301), 739.41 ± 0.35 kg/m3; in data set [1] (x1 = 0.401), 751.43 ± 0.34 kg/m3; in data set [1] (x1 = 0.4998), 764.51 ± 0.32 kg/m3; in data set [1] (x1 = 0.6006), 779.38 ± 0.31 kg/m3. Moreover, the mass density in data set [1] (x1 = 0.7) was found to be 795.69 ± 0.29 kg/m3; in data set [1] (x1 = 0.7955), 813.15 ± 0.28 kg/m3; in data set [1] (x1 = 0.8999) it was 834.62 ± 0.26 kg/m3; in data set [1] (x1 = 1) it was 858.2 ± 0.23 kg/m3.
Regarding `NC1CCCCC1` [cyclohexylamine] + CCCCCCCCCC, the mass density was 729.74 ± 0.37 kg/m3 in data set [1] (x1 = 0.1004); 737.86 ± 0.36 kg/m3 in data set [1] (x1 = 0.2003); 746.97 ± 0.35 kg/m3 in data set [1] (x1 = 0.3002); 757.29 ± 0.34 kg/m3 in data set [1] (x1 = 0.3994); 768.9 ± 0.32 kg/m3 in data set [1] (x1 = 0.4998); 782.09 ± 0.31 kg/m3 in data set [1] (x1 = 0.5996). Besides, the mass density in data set [1] (x1 = 0.6996) came to 797.14 ± 0.29 kg/m3; in data set [1] (x1 = 0.8002), 814.52 ± 0.28 kg/m3; in data set [1] (x1 = 0.9006) it was 834.67 ± 0.26 kg/m3; in data set [1] (x1 = 1) it was 858.2 ± 0.23 kg/m3.
Take `NC1CCCCC1` [cyclohexylamine] + CCCCCCCCCCC: in data set [1] (x1 = 1), the mass density turned out to be 858.2 ± 0.23 kg/m3.
Regarding `NC1CCCCC1` [cyclohexylamine] + CCc1ccccc1, the activity coefficient is 1.13 ± 0.07 in data set [2] (353.15 K), 1.09 ± 0.07 in data set [2] (373.15 K) and 1.06 ± 0.06 in data set [2] (393.15 K).
Consider `NC1CCCCC1` [cyclohexylamine] + Cc1ccccc1, for which the activity coefficient was 1.19 ± 0.07 in data set [2] (353.15 K) and 1.12 ± 0.07 in data set [2] (373.15 K).
For `NC1CCCCC1` [cyclohexylamine] + Nc1ccccc1, the results for the activity coefficient in data set [2] (383.15 K), in data set [2] (393.15 K) and in data set [2] (403.15 K) were 0.84 ± 0.05, 0.94 ± 0.06 and 1.03 ± 0.06, respectively. The mass density was 992.51 ± 0.25 kg/m3 in data set [1] (x1 = 0.1161); 979.58 ± 0.23 kg/m3 in data set [1] (x1 = 0.1936); 965.35 ± 0.22 kg/m3 in data set [1] (x1 = 0.281); 949.2 ± 0.21 kg/m3 in data set [1] (x1 = 0.3837); 932.82 ± 0.21 kg/m3 in data set [1] (x1 = 0.4907); 917.38 ± 0.21 kg/m3 in data set [1] (x1 = 0.5932). Further, the mass density came out at 900.24 ± 0.21 kg/m3 in data set [1] (x1 = 0.7087), 890.69 ± 0.21 kg/m3 in data set [1] (x1 = 0.7738), 875.75 ± 0.22 kg/m3 in data set [1] (x1 = 0.8759) and 858.2 ± 0.23 kg/m3 in data set [1] (x1 = 1).
On to `NC1CCCCC1` [cyclohexylamine] + O, for which the mass density turned out to be 956.7 ± 0.15 kg/m3 in data set [1] (x1 = 0.1002); 935.34 ± 0.16 kg/m3 in data set [1] (x1 = 0.197); 930.93 ± 0.16 kg/m3 in data set [1] (x1 = 0.2237); 919.43 ± 0.17 kg/m3 in data set [1] (x1 = 0.3021); 908.71 ± 0.18 kg/m3 in data set [1] (x1 = 0.397); 897.85 ± 0.19 kg/m3 in data set [1] (x1 = 0.5016). Besides, the mass density in data set [1] (x1 = 0.6037) worked out at 888.39 ± 0.2 kg/m3; in data set [1] (x1 = 0.6931), 880.7 ± 0.21 kg/m3; in data set [1] (x1 = 0.7801), 873.76 ± 0.21 kg/m3; in data set [1] (x1 = 0.9004), 864.97 ± 0.22 kg/m3; in data set [1] (x1 = 1), 858.2 ± 0.23 kg/m3.
For the molecule `CCCCCCCCCC` [decane] + NC1CCCCC1, in data set [1] (x2 = 0), the mass density worked out at 722.54 ± 0.38 kg/m3.
For the molecule `CCc1ccccc1` [ethylbenzene] + NC1CCCCC1, the activity coefficient in data set [2] (353.15 K) was found to be 1.18 ± 0.07; in data set [2] (373.15 K), 1.16 ± 0.07; in data set [2] (393.15 K), 1.13 ± 0.07.
Regarding `CCCCCCC` [heptane] + NC1CCCCC1, the mass density in data set [1] (x2 = 0) was 675.32 ± 0.44 kg/m3.
In the case of `CCCCCCCCC` [nonane] + NC1CCCCC1, the mass density in data set [1] (x2 = 0) is on record as 710.05 ± 0.38 kg/m3.
Consider `CCCCCCCC` [octane] + NC1CCCCC1, for which the figures for the activity coefficient in data set [2] (353.15 K), in data set [2] (373.15 K) and in data set [2] (393.15 K) were 1.36 ± 0.08, 1.29 ± 0.08 and 1.2 ± 0.07, respectively. The mass density in data set [1] (x2 = 0) stood at 694.67 ± 0.39 kg/m3.
As to `Cc1ccccc1` [toluene] + NC1CCCCC1, the activity coefficient turned out to be 1.14 ± 0.07 in data set [2] (353.15 K), 1.13 ± 0.07 in data set [2] (373.15 K) and 1.06 ± 0.06 in data set [2] (393.15 K).
For `CCCCCCCCCCC` [undecane] + NC1CCCCC1, the mass density stood at 732.93 ± 0.36 kg/m3 in data set [1] (x2 = 0); 738.82 ± 0.35 kg/m3 in data set [1] (x2 = 0.1); 747 ± 0.34 kg/m3 in data set [1] (x2 = 0.2172); 754.16 ± 0.34 kg/m3 in data set [1] (x2 = 0.3066); 762.69 ± 0.33 kg/m3 in data set [1] (x2 = 0.4011); 772.99 ± 0.32 kg/m3 in data set [1] (x2 = 0.5005). Further, the mass density turned out to be 784.83 ± 0.3 kg/m3 in data set [1] (x2 = 0.5997), 798.79 ± 0.29 kg/m3 in data set [1] (x2 = 0.7005), 814.98 ± 0.27 kg/m3 in data set [1] (x2 = 0.7998) and 834.57 ± 0.26 kg/m3 in data set [1] (x2 = 0.8998).
Take `O` [water]: in data set [3], the refractive index worked out at 1.3336 ± 0.0004.

(Values after the NIST ThermoML archive (doi:10.1021/je050316s).)
